Results as given in patent US9035022B2, “Cyclic CRF antagonist peptides” (Salk Institute for Biological Studies, priority 2010, dated 2015).

Tested on: adrenalectomized (ADX) rats
Test: In vivo assay of ACTH secretion in adrenalectomized (ADX) rats
Parameters: species or system rat
Procedure: The in vivo assays which are employed to test these CRF antagonists use adrenalectomized (ADX) rats. […] Their diet is supplemented with 0.9% NaCl in the drinking water and with oranges. Two days prior to the experiments, the animals are equipped with jugular cannulae, as described in C. […] On the morning of the experiments, the i.v. cannulae are connected to a line filled with heparinized saline, and the rats are placed in individual buckets and left undisturbed for 2 hours. For the experiment, a first blood sample of 0.3 mL is withdrawn, the test solution is injected (in an 0.2-0.5 mL volume), and subsequent blood samples are obtained at about 15, 45, 90 and 120 minutes. The blood samples are centrifuged, and the separated plasma are kept frozen (−20° C.) until assayed for ACTH values. Plasma ACTH levels are measured as described in C.

Substance: [Aib^19,24,32, Orn^25]-Astressin B [V]
- inhibition of secretion of ACTH and corticosterone (general procedure of Example I): inhibits the secretion of ACTH and corticosterone

Substance: [Tyr-Asp^1, Aib^19,24,32]-Astressin B [IV]
- inhibition of secretion of ACTH and β-END-LI (administration of the peptide): inhibits the secretion of ACTH and β-END-LI
